Laboratory results reported in ChEMBL document CHEMBL3507680, “University of Dundee, Gates Library screen for HepG2 cell viability”.

Experiment: Human HepG2 cell viability assay in 384 well format
Type: toxicity, cell-based
Parameters: dose 125 nL, time 70.5 hour; concentration not given beside the values
Details: HepG2 cells, read-out: Inhibition

| SMILES | cytotoxicity at 70.5 h [%] |
| --- | --- |
| Cn1cc(C(=O)CC2CCCN2C(=O)c2ccc3[nH]ncc3c2)cn1 (configuration not stated) | 30 |
| CC(C(=O)Nc1ccc(N2CCCC2)nc1)n1cncn1 (configuration not stated) | -12.1 |
| Cn1ccc2c(C(=O)N3CCN(C(=O)C4CCCC4)CC3)cccc21 | -5.41 |
| Cc1noc(C)c1-c1cc(CCC2CN(C(=O)CN)CCO2)ncn1 (configuration not stated) | -2.94 |
| Oc1cccc(CN2CCN(C3CCc4ccccc4C3)CC2)c1 (configuration not stated) | 19.8 |
| Cc1cc(N2CCCCC2)c(C#N)c(C)n1 | -5.91 |
| CN1CC(=O)N(c2ccccc2)CC12CCN(C(=O)c1cccs1)C2 (configuration not stated) | -5.55 |
| CCc1ccc(O)c(C(=O)N2CCN(CC(=O)N(CC)CC)CC2)c1 | 1.25 |
| COc1c(CNC2CCN(c3ncccn3)CC2)c(C(C)C)nn1C | 2.8 |
| CCOc1c(OC)cc(/C=C/c2ncc(C(=O)NC)s2)cc1OC | -7.3 |
| Cc1ccc(C2CSCCN2CCS(C)(=O)=O)cc1 (configuration not stated) | -12.2 |
| Cc1ccc([C@]2(O)CC[C@H]3CN(Cc4cccc(F)c4F)C[C@H]32)nc1 | 5.11 |
| CC(c1cccc(Cl)c1)N1CCN(S(C)(=O)=O)CC1 (configuration not stated) | -1.61 |
| COc1cc(N2CCC3(CCN(Cc4nccs4)CC3)C2)ncn1 | 30.8 |
| Cc1oc(NC(=O)C(C)N2CCN(CCO)CC2)c(C#N)c1C (configuration not stated) | -2.61 |
| O=C(N[C@H]1CN(C2CCOCC2)C[C@@H]1C1CC1)c1ccon1 | -4.68 |
| CCCNC(=O)c1ccc(S(=O)(=O)NCC2(COC)CCCC2)cc1 | -4.17 |
| Nc1ncccc1CN1CCOCC1CC(=O)NCc1ccccn1 (configuration not stated) | 19.3 |
| CC(Cn1cccn1)NC(=O)Nc1cccnc1 (configuration not stated) | -8.71 |
| COC(=O)C(NC(=O)c1ccc(C)cc1C)c1cccnc1 (configuration not stated) | -7.04 |
| CS(=O)(=O)N[C@@H]1CN(Cc2ccncc2)C[C@@H]2CCCO[C@@H]21 | -9.37 |
| CCC1CCCN(Cc2nc(N)c3ccccc3n2)C1 (configuration not stated) | 4.3 |
| Fc1ccccc1CN1CCCN(c2ccc3cc[nH]c3n2)CC1 | -4.59 |

| SMILES | cytotoxicity at 70.5 h [%] |
| --- | --- |
| Cn1nc(-c2ccccc2)cc1[C@H]1CN2CC[C@H]1C[C@@H]2CNS(C)(=O)=O | -6.73 |
| c1ccc2oc(CN3CCCCC3Cn3cncn3)nc2c1 (configuration not stated) | -4.46 |
| CCCn1nc(C)c2c(C(F)F)cc(=O)n(CC(=O)O)c21 | -8.97 |
| Cc1ccc2c(c1)C(=O)NCC1(CCN(C(=O)c3ccnn3C)CC1)O2 | -4.65 |
| O=c1[nH]cc(Nc2ccccc2)c(=O)[nH]1 | 35 |
| Cc1nnc(NC(=O)CN2CCCC(c3ccn[nH]3)C2)s1 (configuration not stated) | 18.6 |
| CC(Cc1ccco1)NC(=O)C1=NN(c2ccccc2)C(=O)CC1 (configuration not stated) | 16.9 |
| CCn1c2c(ccc1=O)CC(NCc1cnn(C)c1)CC2 (configuration not stated) | -4.95 |
| Cc1cccc(CN2CCN(C(=O)c3cc(Cl)c[nH]c3=O)CC2)c1 | -4.23 |
| COc1ccccc1C1(C(=O)NCCN2CCOCC2)CCOCC1 | -17.1 |
| O=C(CC1CCN(c2cccnn2)CC1)NCCO | -6.47 |
| c1csc(-c2nc(CN3CCn4c(nnc4C4CC4)C3)co2)c1 | -13.1 |
| O=C(Nc1ccc(CCN2CCC(O)CC2)cc1)C1CCCOC1 (configuration not stated) | -3.52 |
| Cc1cc(C)n2c(CCCNS(=O)(=O)c3ccccc3)nnc2n1 | -7.9 |
| CCS(=O)(=O)N1CC[C@@H]2[C@H](CC1)N(Cc1cccc(C)n1)CCS2(=O)=O | 2.24 |
| COc1ccccc1N1CCN(C(=O)Cn2nc(C)c(Cl)c2C)CC1 | 11.3 |
| COCC1CN(C(=O)Cc2ccsc2)Cc2c1cnn2C (configuration not stated) | 25.8 |
| CN(C)c1ccc(C(=O)N2CCN(Cc3cscn3)CC2)cc1F | -8.39 |
| CNC(=O)CN1CCOCC2(CCCN(CCc3ccccc3)C2)C1 (configuration not stated) | -10.9 |
| CCOCCN1CCN(CCc2ccc3c(c2)CCO3)CC1 | 12.7 |
| CSc1ncnc(NCc2cccs2)c1C#N | -10.7 |
| Cc1ccc(C(=O)N2CCCC(N)CC2)cc1N1CCNC1=O (configuration not stated) | -2.27 |
| CNC(=O)CCc1cc(C2CCCN2S(C)(=O)=O)nc(C)n1 (configuration not stated) | -12.2 |

| SMILES | cytotoxicity at 70.5 h [%] |
| --- | --- |
| COc1ccc2cc(C(=O)N3CCCC(n4ccnc4C)C3)[nH]c2c1 (configuration not stated) | 0.0549 |
| Cc1ccc2nc(C)c(C)c(C(=O)N3CCN(c4nccs4)CC3)c2c1 | -7.96 |
| Cc1cccc(C(=O)N2CCSCC2)c1NC(=O)c1cccnc1 | -7.35 |
| O=C(NCCCC(=O)N1Cc2ccccc2C1)NCc1ccsc1 | 5.3 |
| COCC1Cn2nnc(-c3cnn(C)c3)c2CN1Cc1cccs1 (configuration not stated) | -12.1 |
| COc1cc(CN(C)C(=O)NCCC2CCCO2)ccc1SC (configuration not stated) | -3.73 |
| Nc1nc(C2CCN(C(=O)c3cnco3)CC2)cs1 | -5.18 |
| O=C(c1ccco1)N1C[C@@H]2[C@@H](C1)OCC(=O)N2Cc1cccnc1 | 7.81 |
| CC(C)CS(=O)(=O)N1CCC2(CN(c3ccsc3)C(=O)CN2C)C1 (configuration not stated) | -111 |
| O=S(=O)(Nc1cn[nH]c1)c1ccc(Br)c(F)c1 | -2.34 |
| Cc1nc(C)n(CC2CN(CC(=O)Nc3ccncc3)CCO2)n1 (configuration not stated) | -5.56 |
| Cc1ncsc1C(=O)N1CC[C@@]2(O)CCN(C(=O)N3CCCC3)C[C@H]2C1 | 12.8 |
| CC(=O)N1C[C@H](NS(=O)(=O)Cc2cccc(Cl)c2)[C@@H](C(C)C)C1 | -6.96 |
| Cc1cc(N(C)C)nc(C2CCNC2)n1 (configuration not stated) | 45.3 |
| CCC1CN(C(=O)c2cccnc2O)CCC(=O)N1Cc1ccccc1 (configuration not stated) | -3.15 |
| CC1(C)CC(N2Cc3nc(N4CCCC4)ncc3C2=O)CC(C)(C)N1 | -13.5 |
| CCc1nsc(N2CCOC3(CCCC3)C2)n1 | -3.55 |
| O=C(c1cnn(-c2ccccc2)n1)N1CCCC(n2cccn2)C1 (configuration not stated) | -10.8 |
| CC1=N[C@@]2(CC[C@@H]3CN(C(=O)NC(C)C)C[C@@H]32)C(=O)N1CC1CC1 | 1.82 |
| CC(NC(=O)NCc1cccnc1N1CCCCC1)c1nccs1 (configuration not stated) | -4.81 |
| N#Cc1cccnc1N1CCC(OCCc2ccccc2)CC1 | -9.51 |
| CC(NCc1cc(O)c2cccc(F)c2n1)c1ccc(S(C)(=O)=O)cc1 (configuration not stated) | -12.6 |
| CCSc1cc(C(=O)N(Cc2cnn(C)c2)C(C)C)ccn1 | -11.4 |

| SMILES | cytotoxicity at 70.5 h [%] |
| --- | --- |
| Cc1nnc2n1CCN(CCS(=O)(=O)c1ccccc1)C2 | -9.06 |
| C[C@@H]1C[C@H]2CN(C(=O)c3ccncn3)C[C@H]2O1 | -14.1 |
| CCOCCN(C)C(c1cccnc1)c1ccc(F)cc1F (configuration not stated) | -3.04 |
| Cc1ccccc1[C@@H]1CN(C(=O)c2ccc3[nH]nnc3c2)C[C@H]1C(=O)O | -4.82 |
| O=C(CCn1cc(Cl)cn1)N1CCN(CCOc2ccccc2)CC1 | -4.12 |
| CN1CC(C)(C)CN(C(=O)CCc2ccccc2)CC1=O | -1.8 |
| Cn1cc(CN2CCC3(CCC(C(=O)NCC4CC4)C3)CC2)cn1 (configuration not stated) | -9.54 |
| CCN1CCN(S(=O)(=O)c2cn(C(C)C)cn2)c2ccccc21 | -1.25 |
| O=C1CN(C(=O)c2cc3ccc(Br)cc3[nH]2)CCN1 | -9.95 |
| O=C(c1cccnc1-n1cncn1)N1CCc2ccccc2C1 | -10.4 |
| COc1ccc(CN2CCC3(CC(=O)N(c4cncnc4)C3)C2)cc1 (configuration not stated) | -15.2 |
| Cc1nc([C@@H]2C[C@H]3CN(Cc4scnc4C)C[C@H]3O2)no1 | 5.82 |
| CCOc1ccccc1CCN1Cc2ncccc2C1=O | 3.15 |
| Cn1c(CCCNC(=O)Nc2cn[nH]c2)nc2ccccc21 | -3.29 |
| Cc1cnc(C2CCCN(C(=O)c3c[nH]c(=O)[nH]c3=O)C2)s1 (configuration not stated) | -8.7 |
| CCc1cccc(OCC(=O)NC(C)c2nnc3n2CCC3)c1 (configuration not stated) | -3.83 |
| Cc1nc(CN2CCc3ncnc(C4CC4)c3CC2)cs1 | -2.07 |
| COc1cnc(C2(O)CCN(C(=O)c3scnc3C)CC2)c(OC)n1 | 6.58 |
| CNc1ccc(C2CN(c3cc(C)nc(N)n3)CCO2)nc1 (configuration not stated) | -2.26 |
| O=C(Cn1cccn1)N1CCC(c2nnc(-c3ccsc3)o2)CC1 | -4.75 |
| CN1N=C(C(=O)N2CCCC(CCc3ccccc3)C2)CCC1=O (configuration not stated) | -9.61 |
| CCC(C)(NCC(=O)Nc1ccccc1)c1nc(C)cs1 (configuration not stated) | -4.87 |
| CC(=O)NC1CCN(C(=O)Nc2cccc(C(F)(F)F)c2)CC1 | 20.6 |

| SMILES | cytotoxicity at 70.5 h [%] |
| --- | --- |
| CC1=Nc2c(c(=O)[nH]n2C(C)C)C(c2ccc3c(c2)n(C)c(=O)n3C)S1 (configuration not stated) | -9 |
| CCS(=O)(=O)N1CCC(NC(=O)c2cc3ccccc3cc2O)CC1 | 12.9 |
| Cc1nc(C)c(CN2CCC(N(C)Cc3nnc(C4CC4)o3)C2)s1 (configuration not stated) | -12.3 |
| OCC1(O)CCN(Cc2ccc(C3CCCCO3)o2)CC1 (configuration not stated) | -1.61 |
| COC(=O)c1ccc(S(=O)(=O)N2CCC(Oc3cccnn3)CC2)cc1 | -8.01 |
| Cc1nn(C)c(Oc2ccc(Cl)cc2)c1CN1CCC(CN)C1 (configuration not stated) | -8.55 |
| CC(=O)N(C)c1nc(Cn2nnnc2C2CCCC2)cs1 | 0.35 |
| CC(C)CN1CCC2(CCN(Cc3ccsc3)CC2)C1=O | 6.07 |
| O=C(Cc1ccc(O)c(Cl)c1)N1CCCCC1CCn1cccn1 (configuration not stated) | -4.41 |
| Cc1cccnc1CNc1cc(N2CCCC2CO)ncn1 (configuration not stated) | -8.44 |
| Fc1cccnc1N1CCCC(c2nccs2)C1 (configuration not stated) | -5.3 |
| CNc1cc(C)nc(-c2cc(NC3CCNCC3)nc3[nH]ccc23)n1 | -4.41 |
| COCC1CN(C(=O)Cc2cccc(F)c2)Cc2ccnn2C1 (configuration not stated) | -5.69 |
| Cc1ccc(CN2CC[C@H]3OCC[C@@]3(C(=O)N3CCCO3)C2)s1 | -5.95 |
| CCCn1nc2c(cc1=O)CN(CC(=O)N(C)c1nccs1)CC2 | -4.23 |
| O=C(O)c1csc(S(=O)(=O)N2CCN(Cc3c(F)cccc3Cl)CC2)c1 | -31.1 |
| COc1c[nH]c(C(=O)N2CCN(c3ccc(Cl)cc3)CC2)cc1=O | 20.3 |
| COCCN1CCN(Cc2c(C)noc2C)Cc2cccnc21 | -4.72 |
| Cc1cccc(C(C)(C)NC(=O)CCS(C)(=O)=O)c1 | -3.08 |
| Cc1c(C2CCCN(C(=O)c3ccncc3)C2)n2c(nc1=O)CCC2 (configuration not stated) | -9.8 |
